Measurements reported in patent US12310975B2, “Modulators of BCL6 proteolysis and associated methods of use” (Arvinas Operations, Inc., priority 2019, dated 2025).

What follows are compounds tested against BCL6 (Homo sapiens (Human), UniProt P41182) (assay: Immunofluorescence high content imaging of BCL6 degradation in T47D cells). Conditions: not given.
Format: cell-based
Experimental: Immunofluorescence Protocol for High Cotent Imaging of BCL6
T47D cells were seeded in 100 μl volume of RPMI1640-10% FBS in a 96-well black/clear bottom plates for adherent lines (Corning #3904).
Day 1. T47D breast cancer epithelial cells were seeded at a density so that confluence is ˜70-90% at endpoint. Cells were seeded at 7K/0.1 ml/well the morning prior to the addition of exemplary bifunctional degradation compounds.
Day 2. Prepare an 11 point 3-fold serial dilution of exemplary bifunctional compound in DMSO and aliquot an appropriate volume to cell growth media to generate a 2× final concentration of exemplary bifunctional compound. Add an equal volume (0.1 ml) of 2× exemplary bifunctional compound/media mix to previously plated cells, for a final top concentration in aqueous cell growth media of 0.1 or 1 μM. Incubate for 3 days at 37° C., 5% CO2.
Day 5 Immunofluorescence. Discard cell media. Wash wells with 200 μl of room temperature phosphate-buffered saline (PBS). Prepared 4% paraformaldehyde (PFA) from 16% PFA (Electron Microscopy Sciences #15710) using 1×PBS. Fifty μl of 4% PF was added to each well and incubate for 15 minutes at room temperature to fix the cells. The PFA was aspirated and the cells washed twice with PBS (200 μl)).
Prepared 0.1% Triton X-100 in PBS using 10% triton X-100 stock. The cells were permeabilized by adding 100 ul of the 0.1% Triton X-100 in PBS to each well to permeabilize cells and incubating at room temperature for 15 minutes. Cells were washed twice with PBS.
Prepared 3% BSA/PBS (from Thermofisher #37515 Blocker BSA in TBS, 10%), and 100 ul was added to each well. The cells were incubated for at least 1 hour at room temperature.
Prepared 1% BSA/PBS using Blocker BSA/PBS, and the 3% BSA/PBS removed from the wells.
For no primary antibody controls, 50 μl 1% BSA/PBS was added.
Primary antibody (BCL6 Rb Ab, CST-14895, Cell Signaling) was diluted 1:300 in 1% BSA/PBS using Blocker BSA/PBS.
Fifty μl of primary antibody added to all remaining wells (i.e., all wells other than the primary antibody controls) and the cells were incubated overnight at 4° C. with slow orbital movement.
Day 6. Contents of the wells was removed and the cells washed four times with 200 ul PBS. 1% BSA/PBS was prepared using Blocker BSA in PBS.
Diluted secondary antibody goat anti-Rb IgG Alexa-488 1:1000, and cell mask-Alexa-647 1:3000 in 1% BSA/PBS in the same mix. Add 50 μl to each well and incubate at room temperature for 1 hour in the dark.
Cells were washed three times with 200 ul PBS, and then incubated for 10 minutes with 100 ul Hoechst dye at 1 μg/mL (20 mM stock) to stain cell nuclei. Wells were then washed with 200 μl PBS, and 100 ul of PBS was added to each well and the plate covered plate with a plastic opaque cover. Plates were stored at 4° C. and covered in aluminum foil until imaged.
Plates were equilibrated to room temperature prior to reading. The bottom of the plate was wiped with 70% isopropanol immediately prior to imaging.
10×, 4 fields/well, include Top hat smoothing in the analysis protocol.

Row | IC50 | SMILES
1 | < 10 nM | CCn1c(=O)c(OCC(=O)NC)cc2cc(Nc3nc(N4CCN(CC5CCN(c6cccc(C(=O)NC7CCC(=O)NC7=O)c6F)CC5)CC4)ncc3Cl)ccc21 (stereo not shown) [compound 295, 3-[4-({4-[5-chloro-4-({1-ethyl-3-[(methylcarbamoyl)methoxy]-2-oxo-1,2-dihydroquinolin-6-yl}amino)pyrimidin-2-yl]piperazin-1-yl}methyl)piperidin-1-yl]-N-(2,6-dioxopiperidin-3-yl)-2-fluorobenzamide]
2 | < 10 nM | CNC(=O)COc1cc2cc(Nc3nc(N4CCN(C(C)(C)C5CCN(c6cccc7c6C(=O)N(C6CCC(=O)NC6=O)C7=O)CC5)CC4)ncc3Cl)ccc2n(C)c1=O (stereo not shown) [compound 266, 2-((6-((5-chloro-2-(4-(2-(1-(2-(2,6-dioxopiperidin-3-yl)-1,3-dioxoisoindolin-4-yl)piperidin-4-yl)propan-2-yl)piperazin-1-yl)pyrimidin-4-yl)amino)-1-methyl-2-oxo-1,2-dihydroquinolin-3-yl)oxy)-N-methylacetamide]

Same assay, conditions: T47D

Row | Dmax | SMILES
3 | 50 to 70% | CCn1c(=O)c(OCC(=O)NC)cc2cc(Nc3nc(N4CCN(CC5CCN(c6cccc(C(=O)NC7CCC(=O)NC7=O)c6F)CC5)CC4)ncc3Cl)ccc21 (stereo not shown) [compound 295, 3-[4-({4-[5-chloro-4-({1-ethyl-3-[(methylcarbamoyl)methoxy]-2-oxo-1,2-dihydroquinolin-6-yl}amino)pyrimidin-2-yl]piperazin-1-yl}methyl)piperidin-1-yl]-N-(2,6-dioxopiperidin-3-yl)-2-fluorobenzamide]
4 | ≥ 70% | CNC(=O)COc1cc2cc(Nc3nc(N4CCN(C(C)(C)C5CCN(c6cccc7c6C(=O)N(C6CCC(=O)NC6=O)C7=O)CC5)CC4)ncc3Cl)ccc2n(C)c1=O (stereo not shown) [compound 266, 2-((6-((5-chloro-2-(4-(2-(1-(2-(2,6-dioxopiperidin-3-yl)-1,3-dioxoisoindolin-4-yl)piperidin-4-yl)propan-2-yl)piperazin-1-yl)pyrimidin-4-yl)amino)-1-methyl-2-oxo-1,2-dihydroquinolin-3-yl)oxy)-N-methylacetamide]

Same assay, conditions: T47D cells

Row | SMILES | Dmax | IC50
5 | CNC(=O)COc1cc2cc(Nc3nc(N4CCC(OC5CC6(CCN(c7cccc(C(=O)NC8CCC(=O)NC8=O)c7F)CC6)C5)CC4)ncc3Cl)ccc2n(C(C)C)c1=O (stereo not shown) [compound 433, 3-[2-({1-[5-chloro-4-({3-[(methylcarbamoyl)methoxy]-2-oxo-1-(propan-2-yl)-1,2-dihydroquinolin-6-yl}amino)pyrimidin-2-yl]piperidin-4-yl}oxy)-7-azaspiro[3.5]nonan-7-yl]-N-(2,6-dioxopiperidin-3-yl)-2-fluorobenzamide] | ≥ 70% | –
6 | CNC(=O)COc1cc2cc(Nc3nc(NCCc4ccc(C(=O)NC5CCC(=O)NC5=O)nc4)ncc3Cl)ccc2n(C(C)C)c1=O (stereo not shown) [compound 373, 5-(2-{[5-chloro-4-({3-[(methylcarbamoyl)methoxy]-2-oxo-1-(propan-2-yl)-1,2-dihydroquinolin-6-yl}amino)pyrimidin-2-yl]amino}ethyl)-N-(2,6-dioxopiperidin-3-yl)pyridine-2-carboxamide] | – | ≥ 100 nM
7 | CNC(=O)COc1cc2cc(Nc3nc(N4CCN(CC5CCN(c6cc(F)c(C(=O)NC7CCC(=O)NC7=O)c(OC)c6)CC5)CC4)ncc3Cl)ccc2n(C)c1=O (stereo not shown) [compound 354, 4-[4-({4-[5-chloro-4-({1-methyl-3-[(methylcarbamoyl)methoxy]-2-oxo-1,2-dihydroquinolin-6-yl}amino)pyrimidin-2-yl]piperazin-1-yl}methyl)piperidin-1-yl]-N-(2,6-dioxopiperidin-3-yl)-2-fluoro-6-methoxybenzamide] | 50 to 70% | < 10 nM

Results, then the compound that gave them:

Row | Dmax | IC50 | SMILES
8 | ≥ 70% | < 10 nM | CNC(=O)COc1cc2cc(Nc3nc(N4CCC(CN5CC6(CCN(c7cccc(C(=O)NC8CCC(=O)NC8=O)c7F)CC6)C5)CC4)ncc3Cl)ccc2n(C(C)C)c1=O (stereo not shown) [compound 440, 3-[2-({1-[5-chloro-4-({3-[(methylcarbamoyl)methoxy]-2-oxo-1-(propan-2-yl)-1,2-dihydroquinolin-6-yl}amino)pyrimidin-2-yl]piperidin-4-yl}methyl)-2,7-diazaspiro[3.5]nonan-7-yl]-N-(2,6-dioxopiperidin-3-yl)-2-fluorobenzamide]
9 | 50 to 70% | < 10 nM | CNC(=O)COc1cc2cc(Nc3nc(N4CCN(C(C)C5CCN(c6ccc7c(c6)C(=O)N(C6CCC(=O)NC6=O)C7=O)CC5)CC4)ncc3Cl)ccc2n(C)c1=O (stereo not shown) [compound 335, 2-{[6-({5-chloro-2-[4-(1-{1-[2-(2,6-dioxopiperidin-3-yl)-1,3-dioxo-2,3-dihydro-1H-isoindol-5-yl]piperidin-4-yl}ethyl)piperazin-1-yl]pyrimidin-4-yl}amino)-1-methyl-2-oxo-1,2-dihydroquinolin-3-yl]oxy}-N-methylacetamide]
10 | < 50% | < 10 nM | CNC(=O)COc1cc2cc(Nc3nc(N4CCN(CC5CCCN5c5cccc6c5C(=O)N(C5CCC(=O)NC5=O)C6=O)CC4)ncc3Cl)ccc2n(C(C)C)c1=O (stereo not shown) [compound 398, 2-{[6-({5-chloro-2-[4-({1-[2-(2,6-dioxopiperidin-3-yl)-1,3-dioxo-2,3-dihydro-1H-isoindol-4-yl]pyrrolidin-2-yl}methyl)piperazin-1-yl]pyrimidin-4-yl}amino)-2-oxo-1-(propan-2-yl)-1,2-dihydroquinolin-3-yl]oxy}-N-methylacetamide]

Same assay, conditions: class symbols A-D, read-out: EC50 (nM)*

Row | DC50 | SMILES
11 | 10 to 50 nM | CNC(=O)COc1cc2cc(Nc3nc(N4CCC(c5cn(CCOCCOCCOCCOCCOCC(=O)N[C@H](C(=O)N6C[C@H](O)C[C@H]6C(=O)N[C@@H](C)c6ccc(-c7scnc7C)cc6)C(C)(C)C)nn5)CC4)ncc3Cl)ccc2n(C)c1=O [compound 117, (2S,4R)-1-((S)-2-(tert-butyl)-20-(4-(1-(5-chloro-4-((1-methyl-3-(2-(methylamino)-2-oxoethoxy)-2-oxo-1,2-dihydroquinolin-6-yl)amino)pyrimidin-2-yl)piperidin-4-yl)-1H-1,2,3-triazol-1-yl)-4-oxo-6,9,12,15,18-pentaoxa-3-azaicosanoyl)-4-hydroxy-N-((S)-1-(4-(4-methylthiazol-5-yl)phenyl)ethyl)pyrrolidine-2-carboxamide]
12 | > 100 nM | CNC(=O)COc1cc2cc(Nc3nc(N4CCC(OCCOCCOCC(=O)N[C@H](C(=O)N5C[C@H](O)C[C@H]5C(=O)NCc5ccc(-c6scnc6C)cc5)C(C)(C)C)CC4)ncc3Cl)ccc2n(C)c1=O [compound 70, (2S,4R)-1-((S)-2-(2-(2-(2-((1-(5-chloro-4-((1-methyl-3-(2-(methylamino)-2-oxoethoxy)-2-oxo-1,2-dihydroquinolin-6-yl)amino)pyrimidin-2-yl)piperidin-4-yl)oxy)ethoxy)ethoxy)acetamido)-3,3-dimethylbutanoyl)-4-hydroxy-N-(4-(4-methylthiazol-5-yl)benzyl)pyrrolidine-2-carboxamide]
13 | 10 to 50 nM | CNC(=O)COc1cc2cc(Nc3nc(N4CCC(OCCN5CCC(N6CCC(OCC#Cc7ccc8c(c7)CN(C7CCC(=O)NC7=O)C8=O)CC6)CC5)CC4)ncc3Cl)ccc2n(C)c1=O (stereo not shown) [compound 143, 2-((6-((5-chloro-2-(4-(2-(4-((3-(2-(2,6-dioxopiperidin-3-yl)-1-oxoisoindolin-5-yl)prop-2-yn-1-yl)oxy)-[1,4′-bipiperidin]-1′-yl)ethoxy)piperidin-1-yl)pyrimidin-4-yl)amino)-1-methyl-2-oxo-1,2-dihydroquinolin-3-yl)oxy)-N-methylacetamide]
14 | > 100 nM | CNC(=O)COc1cc2cc(Nc3nc(N4CCC(OCCOCCOCCOc5cc(-c6scnc6C)ccc5CNC(=O)[C@@H]5C[C@@H](O)CN5C(=O)[C@@H](c5cc(C)no5)C(C)C)CC4)ncc3Cl)ccc2n(C)c1=O [compound 50, (2S,4R)-N-(2-(2-(2-(2-((1-(5-chloro-4-((1-methyl-3-(2-(methylamino)-2-oxoethoxy)-2-oxo-1,2-dihydroquinolin-6-yl)amino)pyrimidin-2-yl)piperidin-4-yl)oxy)ethoxy)ethoxy)ethoxy)-4-(4-methylthiazol-5-yl)benzyl)-4-hydroxy-1-((R)-3-methyl-2-(3-methylisoxazol-5-yl)butanoyl)pyrrolidine-2-carboxamide]
15 | 50 to 100 nM | CNC(=O)COc1cc2cc(Nc3nc(N4CCC(OCCOCCOCCOCCOCCOCCOCC(=O)N[C@H](C(=O)N5C[C@H](O)C[C@H]5C(=O)NCc5ccc(-c6scnc6C)cc5)C(C)(C)C)CC4)ncc3Cl)ccc2n(C)c1=O [compound 83, (2S,4R)-1-((S)-2-(tert-butyl)-23-((1-(5-chloro-4-((1-methyl-3-(2-(methylamino)-2-oxoethoxy)-2-oxo-1,2-dihydroquinolin-6-yl)amino)pyrimidin-2-yl)piperidin-4-yl)oxy)-4-oxo-6,9,12,15,18,21-hexaoxa-3-azatricosanoyl)-4-hydroxy-N-(4-(4-methylthiazol-5-yl)benzyl)pyrrolidine-2-carboxamide]
